In assay [1] the target is T1, human vanin-1 (Homo sapiens (Human), UniProt O95497). The experiment in a line: Human Vanin-1 Enzyme Assay 2. The following applies: 1 nM human vanin-1, 10 uM substrate, 45 min. The class given is biochemical. The method, boiled down: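 Purified CHO-expressed His/FLAG-tagged human vanin-1 extracellular domain (1 nM) cleaved pantetheine-AMC-CF3 substrate (10 uM) in pH 8.0 Tris buffer with 1.5 mM cysteamine and 1% DMSO. Fluorescence (ex 405/em 505 nm) was read after 45 min, over an 11-point half-log inhibitor series.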

Assay [2] deals with DSS-induced colitis. The assay is described as follows: DSS (Dextran Sodium Sulfate)-induced colitis mouse model of IBD. The class given is in vivo, mice. On the procedure:
Induced Colitis Mouse Model Methods
Example 1 along with sulfasalazine was evaluated in DSS (Dextran Sodium Sulfate) —induced colitis mouse model of IBD. Experimental colitis was induced in healthy young female BALB/C mice by providing 4% DSS; molecular weight 36,000-50,000 (wt/vol) in drinking water ad-libitium for seven days followed by water alone for another seven days. At the commencement of the study, mice were between 7-8 weeks of age, weighing 18-20 g. All the mice were obtained from The Jackson Laboratory, Bar Harbor, Me. 04609 USA. The test articles Example 1 and vehicle were administered subcutaneously (sc) once a day beginning day −1 and continued till day 14. The positive control, Sulfasalazine was dosed orally (po) once a day beginning day 5 and continued till day 14 (Table 2). The body weights were recorded prior to dosing and daily thereafter for fourteen days. Clinical assessments of the mice were performed every other day beginning day 5. The clinical assessment includes body weight, stool consistency and the presence of blood in the stools and scored accordingly to the Table-3. At the end of the study mice were sacrificed using CO2 asphyxiation and colon from the colocecal junction to the anus was removed, washed and cleaned of all fecal matter using PBS, measured and weighed. The data are presented as the mean±standard error (SEM). Data were analyzed using two-way ANOVA using Bonferroni post-test. groups were considered significant at p<0.05.

Assay [3] deals with T1, human vanin-1. The assay is described as follows: Human Vanin-1 Enzyme Assay 1. The class given is biochemical. The following applies: 25 pM human vanin-1, 50 uM pantetheine 7-amino-4-trifluoromethylcoumarin, 30 min preincubation, 60 min. The method, boiled down: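 Purified His6/FLAG-tagged extracellular domain of human vanin-1, secreted from CHO cells, at 25 pM final in 50 mM Tris-HCl pH 8.0, 50 mM KCl, 0.005% Brij-35, 1.6 mM cysteamine, 0.5% DMSO. Inhibitor preincubated 30 min at room temperature; 50 uM pantetheine-AFC substrate, 60 min, fluorescence at 405/510 nm; 11-point four-fold dilution series.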

Assay [4] deals with T1, human vanin-1. The assay is described as follows: Human Vanin-1 Enzyme Assay 3. It counts as biochemical. The following applies: 2 nM human vanin-1, 10 uM substrate, 15 min. In a few lines:
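His/FLAG-tagged extracellular domain of human vanin-1 from CHO cells, used at 2 nM final, with 10 uM pantetheine-AFC substrate. Buffer: 50 mM Tris-HCl pH 8.0, 50 mM KCl, 0.005% Brij-35, 1.5 mM cysteamine, 1% DMSO. 15 min at room temperature; fluorescence read at 405/505 nm across an 11-point 2-fold dilution series.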

The mark [5] stands for this setting: 50 mg/kg sc QD days -1-14, 4% DSS, female BALB/C mice.

T1 sequence (O95497 22-491): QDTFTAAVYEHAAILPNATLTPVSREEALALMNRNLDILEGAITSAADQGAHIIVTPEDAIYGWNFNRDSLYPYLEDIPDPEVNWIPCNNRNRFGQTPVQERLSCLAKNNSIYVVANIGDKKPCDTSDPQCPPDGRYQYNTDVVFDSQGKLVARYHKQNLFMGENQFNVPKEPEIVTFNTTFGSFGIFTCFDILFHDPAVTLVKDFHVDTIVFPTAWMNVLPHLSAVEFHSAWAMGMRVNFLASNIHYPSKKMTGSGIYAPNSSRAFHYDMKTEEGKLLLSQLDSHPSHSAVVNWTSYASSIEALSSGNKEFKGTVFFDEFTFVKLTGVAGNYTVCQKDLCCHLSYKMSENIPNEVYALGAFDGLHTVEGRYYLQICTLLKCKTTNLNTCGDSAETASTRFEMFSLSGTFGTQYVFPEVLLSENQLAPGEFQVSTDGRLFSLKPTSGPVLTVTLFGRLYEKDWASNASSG

In assay [1], `N#Cc1cccc(C(=O)c2cnc(NC3(c4cncnc4)CC3)nc2)c1` [Example 1, 3-[(2-{[1-(pyrimidin-5-yl)cyclopropyl]amino}pyrimidin-5-yl)carbonyl]benzonitrile] registered an IC50 of 7 nM. In assay [2] (setting [5]), the “Disease Activity Index (DAI)” value was “mark improvement”, the colon length result was “mark improvement” and the “loss of body weight” value was “mark improvement”. For the same compound, the IC50 in assay [3] was 4.1 nM.

As for `O=C(c1cccc(C(F)(F)F)c1)c1ccc(NCc2cccnc2)nn1` [Example 91, {6-[(pyridin-3-ylmethyl)amino]pyridazin-3-yl}[3-(trifluoromethyl)phenyl]methanone], the results for the half-inhibitory concentration (IC50) in assay [1], in assay [4] and in assay [3] were 783 nM, 91.3 nM and 789 nM, respectively.

As to `NC(=O)c1ccc(CNc2ncc(C(=O)c3cc(F)cc(C(F)(F)F)c3)cn2)cc1` [Example 95, 4-[({5-[3-fluoro-5-(trifluoromethyl)benzoyl]pyrimidin-2-yl}amino)methyl] benzamide], the half-inhibitory concentration (IC50) in assay [1] turned out to be 242 nM; in assay [4], 166 nM; in assay [3] it was 91.9 nM.

Turning to `O=C(c1cnc(NCc2cccnc2)nc1)c1ccc2c(c1)OCCO2` [Example 98, 2,3-dihydro-1,4-benzodioxin-6-yl{2-[(pyridin-3-ylmethyl)amino]pyrimidin-5-yl}methanone], the figures for the IC50 in assay [1], in assay [4] and in assay [3] were 149 nM, 55.5 nM and 102 nM, respectively.

For the compound `O=C(c1cnc(NCc2cccnc2)nc1)c1cccs1` [Example 100, {2-[(pyridin-3-ylmethyl)amino]pyrimidin-5-yl}(thiophen-2-yl)methanone], the IC50 in assay [1] is 122 nM; in assay [4], 145 nM; in assay [3] it was 162 nM.

`O=C(c1cnc(NCc2cccnc2)nc1)c1ccccc1Cl` [Example 102, (2-chlorophenyl){2-[(pyridin-3-ylmethyl)amino]pyrimidin-5-yl}methanone]: the IC50 in assay [1] is 549 nM; in assay [4], 722 nM; in assay [3], 858 nM.

On to `Cc1ccc2cc(C(=O)c3cnc(NCc4cccnc4)nc3)ccc2n1` [Example 104, (2-methylquinolin-6-yl){2-[(pyridin-3-ylmethyl)amino]pyrimidin-5-yl}methanone], for which the IC50 came out at 116 nM in assay [1], 200 nM in assay [4] and 196 nM in assay [3].

As to `N#Cc1cccc(C(=O)c2cnc(NCc3ccc(C(N)=O)nc3)nc2)c1` [Example 105, 5-({[5-(3-cyanobenzoyl)pyrimidin-2-yl]amino}methyl) pyridine-2-carboxamide], the concentration for half-maximal inhibition (IC50) came out at 195 nM in assay [1], 173 nM in assay [4] and 146 nM in assay [3].

`NC(=O)c1ccc(CNc2ncc(C(=O)c3ccccc3)cn2)cc1` [Example 106, 4-{[(5-benzoylpyrimidin-2-yl)amino]methyl} benzamide]: the half-inhibitory concentration (IC50) in assay [1] came out at 990 nM; in assay [4] it was 423 nM; in assay [3], 387 nM.

In the case of `N#Cc1cccc(C(=O)c2cnc(NCc3cccnn3)nc2)c1` [Example 108, 3-({2-[(pyridazin-3-ylmethyl)amino]pyrimidin-5-yl}carbonyl) benzonitrile], the half-maximal inhibitory concentration (IC50) in assay [1] worked out at 110 nM; in assay [4], 96.7 nM; in assay [3], 111 nM.

With `O=C(c1ccccc1)c1cnc(NCc2cncnc2)nc1` [Example 109, phenyl{2-[(pyrimidin-5-ylmethyl)amino]pyrimidin-5-yl}methanone], the IC50 in assay [1] is 145 nM; in assay [4], 95.3 nM; in assay [3] it was 143 nM.

Take `CC(C)(Nc1ncc(C(=O)c2ccccc2)cn1)c1ccccc1` [Example 110, phenyl{2-[(2-phenylpropan-2-yl)amino]pyrimidin-5-yl}methanone]: the IC50 was 238 nM in assay [1], 63.5 nM in assay [4] and 422 nM in assay [3].

`O=C(c1ccccc1)c1cnc(NC2(c3ccccc3)CC2)nc1` [Example 111, phenyl{2-[(1-phenylcyclopropyl)amino]pyrimidin-5-yl}methanone]: the IC50 in assay [1] came to 202 nM; in assay [4] it was 182 nM; in assay [3] it was 367 nM.

Consider `N#Cc1cccc(C(=O)c2cnc(NCc3ccnnc3)nc2)c1` [Example 112, 3-({2-[(pyridazin-4-ylmethyl)amino]pyrimidin-5-yl}carbonyl) benzonitrile], for which the half-inhibitory concentration (IC50) in assay [1] is 856 nM; in assay [4] it was 1870 nM; in assay [3], 5570 nM.

Turning to `N#Cc1cccc(CNc2ncc(C(=O)c3ccccc3)cn2)c1` [Example 113, 3-{[(5-benzoylpyrimidin-2-yl)amino]methyl} benzonitrile], the IC50 in assay [1] stood at 334 nM; in assay [4] it was 259 nM; in assay [3], 872 nM.

Take `O=C(c1ccccc1)c1cnc(NC2(c3cccnc3)CC2)nc1` [Example 114, phenyl(2-{[1-(pyridin-3-yl)cyclopropyl]amino}pyrimidin-5-yl)methanone]: the IC50 in assay [1] amounted to 254 nM; in assay [4] it was 170 nM; in assay [3] it was 380 nM.

As to `O=C(c1ccccc1)c1cnc(NCc2cccnn2)nc1` [Example 115, phenyl{2-[(pyridazin-3-ylmethyl)amino]pyrimidin-5-yl}methanone], the concentration for half-maximal inhibition (IC50) stood at 1510 nM in assay [1], 806 nM in assay [4] and 1400 nM in assay [3].

`O=C(c1ccccc1)c1cnc(NCc2cnccn2)nc1` [Example 116, phenyl{2-[(pyrazin-2-ylmethyl)amino]pyrimidin-5-yl}methanone]: the half-maximal inhibitory concentration (IC50) in assay [1] came to 561 nM; in assay [4] it was 321 nM; in assay [3], 419 nM.

Consider `N#Cc1cccc(C(=O)c2cnc(NCc3cnccn3)nc2)c1` [Example 117, 3-({2-[(pyrazin-2-ylmethyl)amino]pyrimidin-5-yl}carbonyl) benzonitrile], for which the half-inhibitory concentration (IC50) in assay [1] stood at 31.8 nM; in assay [4], 18.1 nM; in assay [3], 50.5 nM.

Turning to `N#Cc1cccc(C(=O)c2cnc(NCc3cccnc3)nc2)c1` [Example 118, 3-({2-[(pyridin-3-ylmethyl)amino]pyrimidin-5-yl}carbonyl) benzonitrile], the IC50 amounted to 11.2 nM in assay [1], 4.6 nM in assay [4] and 4 nM in assay [3].

Turning to `N#Cc1cccc(C(=O)c2cnc(NCc3cncnc3)nc2)c1` [Example 120, 3-({2-[(pyrimidin-5-ylmethyl)amino]pyrimidin-5-yl}carbonyl) benzonitrile], the IC50 in assay [1] came out at 37.8 nM; in assay [4], 16.6 nM; in assay [3] it was 36 nM.

As for `CC(C)(Nc1ncc(C(=O)c2cccc(C(F)(F)F)c2)cn1)c1ccccc1` [Example 121, {2-[(2-phenylpropan-2-yl)amino]pyrimidin-5-yl}[3-(trifluoromethyl)phenyl]methanone], the values for the 50% inhibitory concentration (IC50) in assay [1], in assay [4] and in assay [3] were 50.4 nM, 9.1 nM and 32.3 nM, respectively.

Consider `CC(C)(Nc1ncc(C(=O)c2ccc3c(c2)OCCO3)cn1)c1ccccc1` [Example 124, 2,3-dihydro-1,4-benzodioxin-6-yl{2-[(2-phenylpropan-2-yl)amino]pyrimidin-5-yl}methanone], for which the half-maximal inhibitory concentration (IC50) in assay [1] is 798 nM; in assay [4] it was 223 nM; in assay [3], 526 nM.

As to `CS(=O)(=O)c1cccc(C(=O)c2cnc(NCc3ccc(C#N)cc3)nc2)c1` [Example 126, 4-[({5-[3-(methylsulfonyl)benzoyl]pyrimidin-2-yl}amino)methyl] benzonitrile], the values for the half-inhibitory concentration (IC50) in assay [1], in assay [4] and in assay [3] were 44 nM, 40.6 nM and 28.2 nM, respectively.

As to `O=C(c1cnc(NCc2cccnc2)nc1)c1cc(F)cc(C(F)(F)F)c1` [Example 128, [3-fluoro-5-(trifluoromethyl)phenyl]{2-[(pyridin-3-ylmethyl)amino]pyrimidin-5-yl}methanone], the 50% inhibitory concentration (IC50) in assay [1] was 38.9 nM; in assay [4] it was 43.5 nM; in assay [3], 38.1 nM.

For `O=C(O)c1cc(/N=N/c2ccc(S(=O)(=O)Nc3ccccn3)cc2)ccc1O` [Sulfasalazine, reference compound], the “improvement in the colitis (FIG. 1-3)” value in assay [2] (100 mg/kg po QD days 5-14, positive control) is “improvement in the colitis”.

For the origin of these results see patent US10308615B2, “Heterocyclic compounds as inhibitors of Vanin-1 enzyme” (Pfizer Inc., priority 2015, dated 2019).
